In US20210113586A1, “NEW USE AND METHODS OF MODULATING IMMUNE RESPONSES” (DIAMYD MEDICAL AB, priority 2018, published 2021):

Key:
GABAA receptors = experiment: Patch-clamp single-channel current recording in CD4+ T cells; type: cell-based, human; conditions: GABA 100 or 500 nM; n=54 cells; FIG. 3i
Protocol: GABA-activated currents were recorded by the patch-clamp technique as previously described (Bjurstom et al., 2008, Jin et al., 2011a). Extracellular recording solution contained (in mM): 145 NaCl, 3 KCl, 1 CsCl, 1 CaCl2, 1 MgCl2, 10 glucose and 10 TES; the pH was adjusted to 7.4 with NaOH. To record in the whole-cell configuration, the pipette solution contained (in mM): 136 CsCl, 20 KCl, 1 MgCl2, 3 MgATP and 10 TES; pH was adjusted to 7.3 with CsOH. The pipette solution for the cell-attached configuration contained (in mM): 69 NaCl, 5 KCl, 75 CsCl, 1 CaCl2, 1 MgCl2 and 10 TES; pH was adjusted to 7.4 with NaOH. […] The pipette potential (Vp) was −80 mV (hyperpolarizing) in the whole-cell configuration and −60 mV (depolarizing) in the cell-attached configuration.

responder CD4+ T cells = experiment: Multiplex PEA of cytokines released into culture medium by responder CD4+ T cells; type: cell-based, human
Protocol: The proliferation of freshly isolated human PBMCs or CD4^+ T cells was evaluated with MTT (3-(4,5-Dimethylthiazol-2-yl)-2,5-Diphenyltetrazolium Bromide) assay (Ring et al., 2012). Cells were suspended in complete medium (RPMI 1640 supplemented with 2 mM glutamine, 25 mM HEPES, 10% heat inactivated fetal bovine serum, 100 U/ml penicillin, 10 mg/ml streptomycin, 5 mM R-mercaptoethanol) in a concentration 1 million cells per milliliter. The assay was performed in 96-well plates in duplicates or triplicates, where each well was pre-coated with 3 μg/ml anti-CD3 antibody for 3-5 h at 37° C. Each well was loaded with 100,000 cells. Drugs were added to the wells at the relevant concentrations. The plate was incubated for 68 h at 37° C. (95% O2, 5% CO2) and then, a media-soluble tetrazolium dye MTT was added to a final concentration of 1 mM after which the plate was incubated for additional 4 h. The plate was then centrifuged at 2,000 RPM for 10 min to pellet the insoluble purple formazan crystals. The supernatant culture media was collected, stored at −80° C. and used for analysis of cytokines using the multiplex proximity extension assay (PEA). The formazan crystal pellet was dissolved in DMSO and the plate was read within 10 min using a Multiskan MS plate reader (Labsystems) at 550 nm. The optical density value was used as the proliferation index value. Drugs were purchased from Sigma-Aldrich or Tocris (Bristol, UK).
Plasma samples, and culture media samples that were collected from plate wells at the end of the proliferation assay, were analyzed by multiplex PEA with an Olink Inflammation […] panel, targeting 92 proteins related to inflammation (Olink Proteomics, Uppsala, Sweden) as previously described (Edvinsson et al., 2017, Assarsson et al., 2014, Larsson et al., 2015, Larssen et al., 2017). Briefly, 1 μl of sample (plasma samples or cell culture media samples) or negative control was mixed with 3 μl probe solution containing a set of 92 paires DNA-oligonucleotide-conjugated antibodies. Upon recognition of a target protein by a pair of probes, the DNA oligonucletodies on the antibodies are brought in proximity and hybridize to each other, followed by enzymatic DNA polymerization to form a new DNA molecule. The newly formed DNA molecule is then amplified and quantified using a microfluidic real-time qPCR, BioMark™ HD (Fluidigm, South San Francisco, Calif., USA). The generated quantification cycle (Cq) values are normalized against spiked-in controls to convert Cq values to Normalized Protein eXpression (NPX) value on log2 scale. NPX is an arbitrary unit, which is positively correlated to protein concentration. These NPX data were then converted to linear data, using the formula 2^NPX, prior to further statistical analysis. Limit of detection (LOD) for each protein was defined as three standard deviations above the background. Proteins with levels below LOD were excluded from further data analysis.

[1] = tested on: PBMCs from ND individuals; conditions: Example 1, FIG. 1C; PBMCs of 15 healthy donors; 100 nM GABA
Protocol: Peripheral Blood Mononuclear cells (PBMCs) are isolated from blood from donors diagnosed with Type-1 diabetes and healthy controls. Alternatively, CD4-positive cells (T-cells) are further isolated from PBMCs by e.g. MACS beads, FACS or similar technology. […] A reasonable replication, such as 3 cultures of each condition, is performed. A normalized proliferation value for each culture is then calculated by a standard proliferation measurement method, such as by CFSE staining or radioactive thymidine incorporation (requiring additional factors be added during culture) or by staining for proliferation markers.
In the FIG. 1, the proliferation of cells retrieved from 13 T1D subjects and 15 healthy controls were inspected. […] A normalized proliferation index was calculated for each culture.
The proliferation of freshly isolated human PBMCs or CD4^+ T cells was evaluated with MTT (3-(4,5-Dimethylthiazol-2-yl)-2,5-Diphenyltetrazolium Bromide) assay (Ring et al., 2012). Cells were suspended in complete medium (RPMI 1640 supplemented with 2 mM glutamine, 25 mM HEPES, 10% heat inactivated fetal bovine serum, 100 U/ml penicillin, 10 mg/ml streptomycin, 5 mM R-mercaptoethanol) in a concentration 1 million cells per milliliter. […] The formazan crystal pellet was dissolved in DMSO and the plate was read within 10 min using a Multiskan MS plate reader (Labsystems) at 550 nm. […]

[2] = GABA 100 nM, responder CD4+ T cells, normalized to control
[3] = GABA 500 nM, responder CD4+ T cells, normalized to control

SMILES: NCCCC(=O)O [GABA, gamma-aminobutyric acid]
- GABAA single-channel currents (GABAA receptors): activated
- number of cytokines whose release was significantly decreased (responder CD4+ T cells; 100 nM GABA): 27 cytokines
- number of cytokines whose release was significantly decreased (responder CD4+ T cells; 500 nM GABA): 25 cytokines
- 4E-BP1 in culture medium, % Mean (responder CD4+ T cells; [2]): 67.1%
- ADA in culture medium, % Mean (responder CD4+ T cells; [2]): 79.3%
- CASP-8 in culture medium, % Mean (responder CD4+ T cells; [2]): 66.3%
- CCL19 in culture medium, % Mean (responder CD4+ T cells; [2]): 68.7%
- CCL20 in culture medium, % Mean (responder CD4+ T cells; [2]): 61.5%
- CSCP1 in culture medium, % Mean (responder CD4+ T cells; [2]): 60.6%
- CSF-1 in culture medium, % Mean (responder CD4+ T cells; [2]): 84.2%
- CXCL10 in culture medium, % Mean (responder CD4+ T cells; [2]): 62.7%
- CXCL11 in culture medium, % Mean (responder CD4+ T cells; [2]): 69.1%
- DNER in culture medium, % Mean (responder CD4+ T cells; [2]): 94.6%
- Flt3L in culture medium, % Mean (responder CD4+ T cells; [2]): 79.3%
- IL-6 in culture medium, % Mean (responder CD4+ T cells; [2]): 71.6%
- IL-13 in culture medium, % Mean (responder CD4+ T cells; [2]): 69.9%
- IL-18R1 in culture medium, % Mean (responder CD4+ T cells; [2]): 76.1%
- IL-24 in culture medium, % Mean (responder CD4+ T cells; [2]): 71.8%
- LAP TGF-beta-1 in culture medium, % Mean (responder CD4+ T cells; [2]): 79.6%
- LIF in culture medium, % Mean (responder CD4+ T cells; [2]): 66.9%
- MCP-1 in culture medium, % Mean (responder CD4+ T cells; [2]): 76.9%
- OPG in culture medium, % Mean (responder CD4+ T cells; [2]): 70.5%
- OSM in culture medium, % Mean (responder CD4+ T cells; [2]): 76.4%
- STAMPB in culture medium, % Mean (responder CD4+ T cells; [2]): 68.6%
- TNFRSF9 in culture medium, % Mean (responder CD4+ T cells; [2]): 86.3%
- TNFSF14 in culture medium, % Mean (responder CD4+ T cells; [2]): 70.6%
- TRAIL in culture medium, % Mean (responder CD4+ T cells; [2]): 75.9%
- TRANCE in culture medium, % Mean (responder CD4+ T cells; [2]): 89.3%
- μPA in culture medium, % Mean (responder CD4+ T cells; [2]): 78.9%
- 4E-BP1 in culture medium, % Mean (responder CD4+ T cells; [3]): 50.6%
- CASP-8 in culture medium, % Mean (responder CD4+ T cells; [3]): 61.4%
- CCL19 in culture medium, % Mean (responder CD4+ T cells; [3]): 59.9%
- CCL20 in culture medium, % Mean (responder CD4+ T cells; [3]): 66.0%
- CD40 in culture medium, % Mean (responder CD4+ T cells; [3]): 77.8%
- CDCP1 in culture medium, % Mean (responder CD4+ T cells; [3]): 44.3%
- CXCL1 in culture medium, % Mean (responder CD4+ T cells; [3]): 72.2%
- CXCL5 in culture medium, % Mean (responder CD4+ T cells; [3]): 66.0%
- CXCL9 in culture medium, % Mean (responder CD4+ T cells; [3]): 62.2%
- CXCL10 in culture medium, % Mean (responder CD4+ T cells; [3]): 60.6%
- CXCL11 in culture medium, % Mean (responder CD4+ T cells; [3]): 66.6%
- DNER in culture medium, % Mean (responder CD4+ T cells; [3]): 68.6%
- IFM-gamma in culture medium, % Mean (responder CD4+ T cells; [3]): 73.2%
- IL-5 in culture medium, % Mean (responder CD4+ T cells; [3]): 76.0%
- IL-8 in culture medium, % Mean (responder CD4+ T cells; [3]): 81.2%
- IL-12B in culture medium, % Mean (responder CD4+ T cells; [3]): 69.4%
- IL-13 in culture medium, % Mean (responder CD4+ T cells; [3]): 83.0%
- IL-18R1 in culture medium, % Mean (responder CD4+ T cells; [3]): 85.8%
- OPG in culture medium, % Mean (responder CD4+ T cells; [3]): 66.4%
- SCF in culture medium, % Mean (responder CD4+ T cells; [3]): 61.8%
- STAMPB in culture medium, % Mean (responder CD4+ T cells; [3]): 57.8%
- TNF in culture medium, % Mean (responder CD4+ T cells; [3]): 47.8%
- TNFB in culture medium, % Mean (responder CD4+ T cells; [3]): 69.0%
- TNFSF14 in culture medium, % Mean (responder CD4+ T cells; [3]): 60.0%
- μPA in culture medium, % Mean (responder CD4+ T cells; [3]): 68.0%
- number of cytokines whose secretion was decreased in total (responder CD4+ T cells; responder group, concentration-dependent (100, 500 nM)): 37 cytokines
- proliferation in the presence of GABA [1]: did not proliferate differently
